Measured values: paper PMC11156899, “High-throughput screening unveils nitazoxanide as a potent PRRSV inhibitor by targeting NMRAL1” (Nature Communications, 2024)

What was measured:
PRRSV (GSWW-18 strain) = experiment: Anti-PRRSV dose-response (EC50, IFA) in PAM cells; assay type: cell-based, Porcine Reproductive and Respiratory Syndrome Virus; conditions: PAM cells
PRRSV VR2332 = experiment: EC50 against VR-2332 strain on PAM cells; assay type: cell-based; conditions: Porcine reproductive and respiratory syndrome virus
Excerpt: Supplementary Fig. 3: Cytotoxicity and Antiviral Efficacy of NTZ.
PRRSV capsid protein positive
(primary antibody SR30, green) and nuclei (DAPI, blue).

PRRSV GSWW-18 strain [1] = experiment: In vivo antiviral effect in swine infected with GSWW-18 strain; set-up: species or system pig; conditions: for PRRSV dynamics in blood within 24 h: 48 h post infection
PRRSV GSWW-18 strain [2] = experiment: PRRSV transmission to co-housed pigs; assay type: in vivo, pig; conditions: 25 mg/kg, from 0 dpi; two co-house animals uninfected
Protocol: Although the replication mechanism of PRRSV in blood is not fully understood, viremia is an undoubted marker of disease severity[22],[23]. […] On the second day post-infection, we administered NTZ at dosages of 10 mg/kg or 5 mg/kg and monitored the dynamics of PRRSV in the blood within 24 h (Fig. 4b). We observed that NTZ acted swiftly. […] Further experiments explored NTZ’s role in viral transmission (Fig. 4c).
Fig. 4 NTZ inhibition of PRRSV shedding and transmission. a Viral load in blood, and shedding in oronasal and anal swabs. Viral load or shedding in blood and oronasal swabs were quantified from 2 to 4 dpi, and in anal swabs from 2 to 5 dpi. Viral copy numbers for each pig during this period are presented. b NTZ suppression of PRRSV proliferation in blood. […] Parameters were calculated using a non-compartmental analysis (NCA). Eighteen pigs were evenly divided into three dosage groups (n = 6), each housed separately, fasted for 12 h before the experiment, and monitored by professional veterinarians for welfare and enclosure cleaning to prevent coprophagia. g Tissue distribution of NTZ’s main metabolite TIZ. Tissues were collected as per Method Pharmacokinetics and Tissue Distribution of NTZ, quantifying TIZ content at various times (n = 2). […]

NSP12 = experiment: In vitro binding (DSF/CETSA) of NSP12 purified by inclusion bodies; set-up: species or system PRRSV GSWW-18 strain; conditions: NSP12 purified by IBs, different buffer systems
Protocol: For DSF, 20 μM purified NSP1α and NSP12 protein from the GSWW-18 strain, as well as NMRAL1 protein (Accession: A0A0D9R9W0) was thoroughly mixed with 20 μM SYPRO Orange (S6650, Thermo) in a buffer containing 10 mM HEPES and 200 mM NaCl at pH 7.20. An equal volume of 100 μM NTZ, dissolved in the same buffer, was added and the mixture was filtered through a 0.22 μm filter. For controls, an equivalent volume of DMSO was used. […] DSF experiments were monitored using the QuantStudio™ 5 Real-Time PCR System (Thermo). Data were analyzed using DSFworld[42].
'FT' is the flow-through after passing through the Ni column. 'Ni-200' and 'Ni-500' represent different purification conditions with varying concentrations. 'L2' is the total cell lysate after changing the expression conditions. 'S2' is the supernatant after cell lysis with changed expression conditions. The portions highlighted in red boxes indicate the target protein. […]
constant (KD) between Nsp1α and TIZ is lower than that of NMRAL1. We observe that […]
attempting different systems (Fig. R5 e-h). Although SPR confirms the interaction […]
possibly be attributed to the abnormal protein conformation of NSP12 purified by IBs. […]
(b) The KD value of Nsp1α determined using the Kinetics fit model. […]
(I) The KD value of Nsp12 determined using the Kinetics fit model. […]

[3] = treatment group, only 25 mg/kg, P < 0.0001

CC(=O)Oc1ccccc1C(=O)Nc1ncc([N+](=O)[O-])s1 [Nitazoxanide]
IFA inhibitory effect on PRRSV (PRRSV (GSWW-18 strain); GSWW-18): dose-dependent inhibitory effect | EC50 (PRRSV (GSWW-18 strain); Porcine reproductive and respiratory syndrome virus, mean ± SEM, n = 2, unit only on axis title, read-out: EC50): 310 ± 147 nM | EC50 (PRRSV VR2332): ~670 nM | PRRSV dynamics in blood within 24 h (PRRSV GSWW-18 strain [1]; 5 mg/kg oral at 0 h and 12 h): viral loads decreased from 2 h to 8 h post administration | PRRSV dynamics in blood within 24 h (PRRSV GSWW-18 strain [1]; 10 mg/kg oral at 0 h and 12 h): more pronounced inhibition | body temperature and weight (PRRSV GSWW-18 strain [1]; 25 mg/kg oral): alleviated the rise in body temperature and weight loss | lung PRRSV-positive cells (IHC) (PRRSV GSWW-18 strain [1]; 25 mg/kg oral, prophylactic and therapeutic groups, vs MOCK): fewer lung PRRSV-positive cells | clinical symptoms by day 7 (PRRSV GSWW-18 strain [1]; 25 mg/kg, treatment and prophylactic groups): no apparent clinical symptoms | interstitial pneumonia with lobar consolidation (PRRSV GSWW-18 strain [1]; a specific dose of NTZ, PO BID 3 days): significantly mitigated | fatalities within 14 days (PRRSV GSWW-18 strain [1]; pig, in vivo): no fatalities | PRRSV replication in ManLNs, lungs and tonsils (PRRSV GSWW-18 strain [1]; prophylactic and treatment groups, P < 0.0332): significantly reduced | PRRSV viral load in blood (PRRSV GSWW-18 strain [1]; prophylactic group, 5 mg/kg, P = 0.0033): significantly reduced | viral copy numbers in BALF (PRRSV GSWW-18 strain [1]; prophylactic group, 10 mg/kg and 25 mg/kg, P < 0.0001): significant effects | oronasal shedding (PRRSV GSWW-18 strain [1]; prophylactic group, 10 mg/kg, P = 0.0012): significantly lowered | anal shedding (PRRSV GSWW-18 strain [1]; prophylactic group, even at 25 mg/kg): did not reduce | viral copy numbers in BALF (PRRSV GSWW-18 strain [1]; [3]): achieved statistical significance | virus in ILNs (PRRSV GSWW-18 strain [1]; [3]): significantly suppressed | PRRSV transmission to co-housed animals (PRRSV GSWW-18 strain [2]): can help limit PRRSV transmission | binding activity with NSP12 in vitro (NSP12): did not exhibit binding activity
